Values of other authors in patent US20220226307A1, “INHIBITION OF BETA-2 NICOTINIC ACETYLCHOLINE RECEPTORS TO TREAT ALZHEIMER'S DISEASE PATHOLOGY” (INSTITUT PASTEUR, priority 2016, published 2022).

Tested on: ventral hippocampus alpha-7 nAChR and alpha-4 beta-2 nAChR
Conditions: local infusion in ventral hippocampus (Felix and Levin, 1997; Levin et al., 2002)

Row | Structure (SMILES) | working memory
1 | CCN1C[C@]2(COC(=O)c3ccccc3N3C(=O)C[C@H](C)C3=O)CC[C@H](OC)[C@@]34[C@@H]5C[C@H]6[C@H](OC)[C@@H]5[C@](O)(C[C@@H]6OC)[C@@](O)([C@@H](OC)[C@H]23)[C@@H]14 [MLA, methyllycaconitine] | induces working memory impairments
2 | Br.CO[C@H]1CC=C2CCN3CCC4=C(CC(=O)OC4)[C@]23C1 [DHβE, dihydro-β-erythroidine hydrobromide] | induces working memory impairments
